From patent US10517889B2, “Modulators of SMAD7 expression” (Ionis Pharmaceuticals, Inc., priority 2017, dated 2019)
Strand notation (5' to 3'): a small letter for the sugar, then the base; units joined by * are phosphorothioate-linked, units joined directly phosphodiester-linked; [ ] holds rarer units or linkages, { } end groups; capitals alone tell only the bases. k = constrained ethyl (cEt); [5mC] = 5-methylcytosine; d = 2'-deoxy (DNA)

Test system: human SMAD7 mRNA
Assay: Antisense inhibition of human SMAD7 mRNA expression in Hep3B cells by 3-10-3 cEt gapmers, 10,000 nM, electroporation (Example 2)
Format: cell-based
Conditions: Hep3B cells, 10,000 nM antisense oligonucleotide, electroporation, approximately 24 hours, RT-PCR primer probe set RTS5062, relative to untreated control cells
In short: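 Hep3B cells (20,000 per well) were electroporated with 10,000 nM 16-mer 3-10-3 cEt gapmer (phosphorothioate, 5-methylcytosine). After about 24 h, SMAD7 mRNA was quantified by qRT-PCR with primer probe set RTS5062, normalised to RIBOGREEN total RNA, and expressed as percent inhibition versus untreated cells.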

First: 772613 (kA*kT*kT*dG*dA*dG*d[5mC]*dT*dG*dT*d[5mC]*d[5mC]*dG*kA*kG*kG; antisense) [compound 772613]
Second: 799856 (kG*k[5mC]*kA*dA*dG*d[5mC]*d[5mC]*dA*dA*dG*dT*dG*dT*k[5mC]*k[5mC]*kA; antisense) [compound 799856]
The “% Inhibition” value of the first is lower: 7% for the first, 43% for the second.

With “798878 (k[5mC]*kT*kG*d[5mC]*dT*dG*d[5mC]*dA*dT*dA*dA*dA*d[5mC]*kT*k[5mC]*kG; antisense) [compound 798878]” the “% Inhibition” value was 49%.

Same assay, conditions: Hep3B cells, electroporation with 10,000 nM antisense oligonucleotide, approximately 24 hours, RTS5062, percent inhibition of SMAD7 mRNA relative to untreated control cells

Going from “799567 (k[5mC]*kT*kT*dT*dG*dA*dG*dT*dA*dA*dA*d[5mC]*dA*kA*kT*kA; antisense) [compound 799567]” to “799770 (kG*kT*kT*dT*d[5mC]*d[5mC]*dA*dA*dG*dG*d[5mC]*d[5mC]*dG*kG*k[5mC]*kG; antisense) [compound 799770]”, the “% Inhibition” value rises from 15% to 50%.

Compared with “799705 (antisense kA*kA*k[5mC]*dT*dT*dA*dA*dA*dA*dT*dG*dT*dG*k[5mC]*k[5mC]*kA) [compound 799705]”, “799294 (antisense k[5mC]*kG*k[5mC]*dG*dG*d[5mC]*d[5mC]*dT*dT*dG*dA*dT*dG*k[5mC]*kT*kG) [compound 799294]” is lower in “% Inhibition” value: 26% for the first, 13% for the second.

For “799527 (kG*kT*k[5mC]*dA*dA*dA*dG*dG*dA*dG*dG*dT*dT*kT*kG*kG; antisense) [compound 799527]”, the “% Inhibition” value was 4%.

Same assay, conditions: Hep3B cells, electroporation with 10,000 nM antisense oligonucleotide, approximately 24 hours, SMAD7 mRNA by RT-PCR (RTS5062), relative to untreated control cells

First: 799982 (k[5mC]*kA*k[5mC]*d[5mC]*dA*d[5mC]*dG*d[5mC]*d[5mC]*dT*d[5mC]*dG*d[5mC]*kT*kA*kA; antisense) [compound 799982]
Second: 798818 (kT*kA*kT*dG*d[5mC]*d[5mC]*dA*d[5mC]*d[5mC]*dA*d[5mC]*dG*d[5mC]*kA*k[5mC]*k[5mC]; antisense) [compound 798818]
The “% Inhibition” value of the first is lower: 0% for the first, 63% for the second.

Compared with “799926 (antisense k[5mC]*k[5mC]*k[5mC]*dA*dA*dG*d[5mC]*d[5mC]*dT*dA*d[5mC]*dA*dT*kA*kT*kT) [compound 799926]”, “799469 (antisense k[5mC]*kT*k[5mC]*d[5mC]*dG*d[5mC]*dA*dT*dA*dG*dA*d[5mC]*dA*kG*kA*kT) [compound 799469]” is higher in “% Inhibition” value: 17% for the first, 69% for the second.

Compared with “798665 (k[5mC]*kA*kG*dT*d[5mC]*dT*d[5mC]*d[5mC]*d[5mC]*dG*dG*dA*dG*kG*k[5mC]*k[5mC]; antisense) [compound 798665]”, “830062 (k[5mC]*k[5mC]*kT*dA*d[5mC]*d[5mC]*dA*d[5mC]*d[5mC]*d[5mC]*d[5mC]*dT*dG*kT*kG*kA; antisense) [compound 830062]” is higher in “% Inhibition” value: 7% for the first, 17% for the second.

Going from “798883 (kT*kA*kA*dA*dG*d[5mC]*d[5mC]*d[5mC]*dG*dT*d[5mC]*d[5mC]*dA*k[5mC]*kG*kG; antisense) [compound 798883]” to “800026 (kT*k[5mC]*kA*dG*dT*dA*d[5mC]*dA*dA*dG*dG*dA*d[5mC]*kT*kA*kA; antisense) [compound 800026]”, the “% Inhibition” value rises from 0% to 50%.

Going from “799902 (antisense kG*kG*kA*dA*dG*dA*d[5mC]*dA*d[5mC]*dA*dA*dG*dG*kG*k[5mC]*kT) [compound 799902]” to “798888 (kA*kA*kA*dG*d[5mC]*dT*dG*dA*dT*d[5mC]*dT*dG*d[5mC]*kA*k[5mC]*kG; antisense) [compound 798888]”, the “% Inhibition” value rises from 34% to 40%.

Same assay, conditions: Hep3B cells, electroporation with 10,000 nM antisense oligonucleotide, approximately 24 hours, primer probe set RTS5062, relative to untreated control cells

Going from “799131 (antisense k[5mC]*kA*kT*dG*dT*d[5mC]*d[5mC]*d[5mC]*dT*d[5mC]*d[5mC]*d[5mC]*dA*kG*kG*kG) [compound 799131]” to “798750 (antisense kA*kG*kG*dA*dG*dG*d[5mC]*dA*d[5mC]*dG*d[5mC]*dG*dG*kT*kG*k[5mC]) [compound 798750]”, the “% inhibition of SMAD7 mRNA expression” value rises from 6% to 54%.

In the case of “799007 (kT*kG*k[5mC]*d[5mC]*dG*d[5mC]*dT*d[5mC]*d[5mC]*dT*dG*d[5mC]*dA*k[5mC]*kA*k[5mC]; antisense) [compound 799007]”, the “% inhibition of SMAD7 mRNA expression” value is reported as 47%.

Going from “799195 (antisense k[5mC]*kA*kA*dT*dG*d[5mC]*dT*dA*dA*dA*dT*dT*dT*k[5mC]*k[5mC]*kA) [compound 799195]” to “799074 (antisense k[5mC]*kA*kA*dA*dA*dA*dA*dG*dA*dA*dA*dG*dA*k[5mC]*kG*k[5mC]) [compound 799074]”, the “% Inhibition” value falls from 43% to 9%.

First: 799098 (antisense kA*kA*kA*dA*d[5mC]*d[5mC]*dT*dG*dA*dT*dG*dT*d[5mC]*kA*k[5mC]*k[5mC]) [compound 799098]
Second: 798953 (antisense kA*kG*k[5mC]*dT*dA*dT*dT*dT*d[5mC]*dT*d[5mC]*dA*dA*kA*kG*kA) [compound 798953]
The “% Inhibition” value of the first is higher: 38% for the first, 17% for the second.

With “772692 (kA*kA*kA*dG*d[5mC]*dA*d[5mC]*dT*dA*d[5mC]*dA*dA*dT*kG*k[5mC]*kT; antisense) [compound 772692]” the “% Inhibition” value was 19%.

Same assay, conditions: Hep3B cells, electroporation, 10,000 nM antisense oligonucleotide, approximately 24 hours, RTS5062, relative to untreated control cells

For “799632 (k[5mC]*kT*kG*d[5mC]*d[5mC]*dA*dA*dA*dT*d[5mC]*dA*d[5mC]*dA*kA*kA*kG; antisense) [compound 799632]”, the “% inhibition of SMAD7 mRNA expression” value was 48%.

Same assay, conditions: SMAD7 mRNA, Hep3B cells, 10,000 nM antisense oligonucleotide, electroporation, approximately 24 hours, primer probe set RTS5062, relative to untreated control cells

Compared with “790678 (kT*k[5mC]*k[5mC]*dT*dA*dT*dT*dG*dG*d[5mC]*dT*dG*dA*kT*k[5mC]*kT; antisense) [compound 790678]”, “790604 (kT*kA*k[5mC]*dG*dA*dG*dT*dG*dT*dA*dT*dG*dA*kG*kT*kT; antisense) [compound 790604]” is lower in “% Inhibition” value: 46% for the first, 30% for the second.

First: 772540 (antisense kA*kG*kG*d[5mC]*dG*dA*dG*dG*dA*dG*dA*dA*dA*kA*kG*kT) [compound 772540]
Second: 790674 (kT*kG*k[5mC]*dT*dA*d[5mC]*d[5mC]*dT*dA*dA*dT*dG*dT*k[5mC]*kA*kA; antisense) [compound 790674]
The “% Inhibition” value of the first is lower: 10% for the first, 40% for the second.

First: 801138 (antisense kG*kT*kT*dA*dG*dG*dA*d[5mC]*d[5mC]*dT*dG*dG*dG*kA*kA*k[5mC]) [compound 801138]
Second: 801132 (antisense kG*kG*kT*dG*dA*d[5mC]*dT*d[5mC]*dA*dT*d[5mC]*dA*dG*kG*k[5mC]*kA) [compound 801132]
The “% Inhibition” value of the first is lower: 6% for the first, 55% for the second.

For “790871 (kT*kG*kT*dT*dA*dG*dG*dA*d[5mC]*d[5mC]*dT*dG*dG*kG*kA*kA; antisense) [compound 790871]”, the “% Inhibition” value was 39%.

Same assay, conditions: SMAD7 mRNA, Hep3B cells, electroporation with 10,000 nM antisense oligonucleotide, approximately 24 hours, primer probe set RTS5062, relative to untreated control cells

Going from “829888 (antisense kG*kT*k[5mC]*d[5mC]*dA*d[5mC]*dG*dG*d[5mC]*dT*dG*d[5mC]*dT*kG*k[5mC]*kA) [compound 829888]” to “829937 (kT*kT*k[5mC]*dA*dG*d[5mC]*dT*dA*dG*dG*dT*dG*dA*kT*kA*kA; antisense) [compound 829937]”, the “% Inhibition” value falls from 47% to 0%.

First: 829924 (k[5mC]*kT*k[5mC]*dA*dT*dT*dG*dA*dG*d[5mC]*dT*dA*dA*kG*kA*kA; antisense) [compound 829924]
Second: 829832 (kT*kG*kA*d[5mC]*d[5mC]*dG*dA*dT*d[5mC]*d[5mC]*d[5mC]*d[5mC]*dA*kG*kG*k[5mC]; antisense) [compound 829832]
The “% Inhibition” value of the first is lower: 25% for the first, 51% for the second.

First: 829986 (k[5mC]*kG*kA*dG*dG*d[5mC]*dG*dG*dT*dG*dA*dT*dT*kG*k[5mC]*k[5mC]; antisense) [compound 829986]
Second: 829860 (antisense kG*kT*k[5mC]*dA*dG*d[5mC]*dT*dG*dG*dA*dT*dG*d[5mC]*k[5mC]*kG*k[5mC]) [compound 829860]
The “% Inhibition” value of the first is lower: 28% for the first, 31% for the second.
